Source: article PMC9268243, “Metabolic Behaviors of Aconitum Alkaloids in Different Concentrations of Aconiti Lateralis Radix Praeparata and Effects of Aconitine in Healthy Human and Long QT Syndrome Cardiomyocytes” (Molecules, 2022)
Like-named read-outs stand apart in the source and are kept apart here.

Assays:
[1] = system: CYP3A4; settings: in vivo; cited from earlier work
[2] = Pharmacokinetic study of six aconitum alkaloids in rat plasma after oral Fu Zi extracts (UPLC-MS/MS); type: in vivo, Sprague Dawley rats; settings: SD rat plasma, mean ± SD, n = 8; for Cmax / Tmax / AUC(0-t) / CL/F / Vd/F / half-life: both sexes, Sprague Dawley, in vivo; for AUC(0-t): read-out: AUC(0–48h); for CL/F: read-out: CLz/F (converted); for Vd/F: read-out: Vz/F; for half-life: read-out: t1/2z (converted)
Experimental: Fu Zi (200 g) was taken and broken by a pulverizer to the size of 0.5–1.0 cm. The broken Fu Zi was soaked in 1.6 L distilled water and boiled for 0.5 h. The filtrate was collected and the previous step was repeated for the filtered residue. The mixed filtrates were precipitated with 60% ethanol, and then centrifuged (2000× g, 10 min). The supernatant was decompressed and concentrated to a final density of 2.0 g/mL by the amount of the crude drugs. The final concentration of ethanol in Fu Zi extracts before administration was below 0.5%. The extract was subsequently kept at −20 °C for oral administration to rats.
All samples were analyzed on UPLC® I-Class and Xevo® TQS mass spectrometry combined system. Separations by a Waters ACQUITY UPLC® HSS T3(2.1 mm × 100 mm, 1.8 μm) column were conducted with a mobile phase of water (A) and acetonitrile (B), both containing 0.1% formic acid, at the flow rate of 0.3 mL·min^−1.The run time was 5.0 min and the gradient elution program was adopted as follows: 0–0.3 min, 10% B; 0.3–1 min, 10–50% B; 1–2.5 min, 50–90% B; 2.5–3 min, 90% B; 3–5 min, 10% B. The temperature of the column and samples were set at 45 °C and 10 °C, respectively. The volume of injection was 2 μL.
The detection was quantified by a triple quadrupole mass spectrometer that was set as multiple reactive monitoring (MRM) in the electrospray positive ionization mode (ESI+). The correlative parameters were as follows: capillary voltage: 3 kV; desolvation gas flow: 800 L·h^−1; cone gas flow: 150 L·h^−1; source temperature: 150 °C; desolvation temperature: 500 °C.
The method of […] was utilized. An amount of 100 μL of plasma samples from rats after oral administration of Fu Zi extracts was precipitated with 300 μL of 50% acetonitrile plus 50% methanol, vortexed for 1.0 min and centrifuged at a speed of 12,000× g at 4 °C for 10 min. The supernatant was transferred to another 1.5 mL centrifuge tube, dried with a stream of nitrogen at 40 °C, redissolved in 50 μL methanol and centrifuged at 12,000× g for 10 min. Then, the supernatant was pipetted out into the autosampler vials and analyzed by UPLC-MS/MS system.
24 Sprague Dawley rats (half male and female, weight 180–220 g) were purchased from Beijing Weitong Lihua Biotechnology Co.Ltd. (Beijing, China). The license number of experimental animal production was SCXK (Jing) 2016–0006. The animals were maintained under a standard laboratory condition (humidity: 40–70%, room temperature: 20–26 °C, […], 12 h dark-light cycle) and fed separately. All animal experiments were conducted according to the Guide for the Care and Use of Laboratory Animals (National Research Council of the USA, 1996) and approved by the Institutional Animal Care and Use Committee (IACUC-DWZX-2020-776). After 5 days of acclimation, the rats were fasted for 12 h but provided with water freely before the experiments. The rats were randomly divided into 3 groups: high (2.0 g/kg), middle (1.0 g/kg), and low (0.5 g/kg) dose groups. The Fu Zi extracts was administered to each rat intragastrically. An equivalent of 0.20 mL blood samples were collected from the fossa orbitalis vein into 1.5 mL heparinized centrifuge tubes at the designated time points after dosing: 0.08, 0.25, 0.5, 1, 2, 4, 8, 12, 24, and 48 h. The plasma samples were pipetted out into another 1.5 mL centrifuge tubes after being centrifuged at 5000× g for 10 min and then stored at −20 °C until further analysis.
The data were acquired by […] from Waters (UNIFI). Microsoft Office Excel and the SPSS software (Version 13.0) was used for data analysis. The data below the LLOQ were regarded as zero in summary statistics. The pharmacokinetic parameters were calculated by DAS pharmacokinetic program (Version 2.0) and all analyzed by non-compartmental method. […] All data were presented as mean ± SD. […]

In the case of `COC[C@@]12CC[C@H](OC)[C@]34C(C([C@H](OC)[C@H]13)[C@]1(OC(C)=O)[C@H]3[C@@H](OC(=O)c5ccccc5)[C@](O)(C[C@H]34)[C@@H](OC)[C@@H]1O)N(C)C2` [HA, hypaconitine], the “main CYP 450 subtype for alkaloid metabolism” value [1] is listed as “CYP3A4”, the t1/2z ([2]; oral Fu Zi extracts 1.0 g/kg) is listed as 8.72 ± 3.40 h and the Cmax ([2]; oral Fu Zi extracts 0.5 g/kg) is listed as 6.37 ± 1.96 ng/mL. For the same molecule, the Tmax ([2]; oral Fu Zi extracts 0.5 g/kg) was 2.14 ± 0.9 h, the AUC(0-t) ([2]; oral Fu Zi extracts 0.5 g/kg) was 62.9 ± 26.9 ng·h/mL and the CL/F ([2]; oral Fu Zi extracts 0.5 g/kg) was 67 mL/min/kg. The Vd/F ([2]; oral Fu Zi extracts 0.5 g/kg) was 12.8 ± 6.88 L/kg, the half-life ([2]; oral Fu Zi extracts 0.5 g/kg) was 1.83 ± 0.64 h and the Cmax ([2]; oral Fu Zi extracts 1.0 g/kg) was 9.22 ± 1.78 ng/mL. It also gave a Tmax ([2]; oral Fu Zi extracts 1.0 g/kg) of 3.88 ± 2.03 h, an AUC(0-t) ([2]; oral Fu Zi extracts 1.0 g/kg) of 115 ± 25 ng·h/mL and a CL/F ([2]; oral Fu Zi extracts 1.0 g/kg) of 59.5 mL/min/kg. It also gave a Vd/F ([2]; oral Fu Zi extracts 1.0 g/kg) of 45.3 ± 26.3 L/kg, a Cmax ([2]; oral Fu Zi extracts 2.0 g/kg) of 12.5 ± 4.42 ng/mL and a Tmax ([2]; oral Fu Zi extracts 2.0 g/kg) of 1.6 ± 1.47 h. For the same molecule, the AUC(0-t) ([2]; oral Fu Zi extracts 2.0 g/kg) was 186 ± 64.7 ng·h/mL, the CL/F ([2]; oral Fu Zi extracts 2.0 g/kg) was 79.7 mL/min/kg and the Vd/F ([2]; oral Fu Zi extracts 2.0 g/kg) was 80.4 ± 35.5 L/kg. It also gave a half-life ([2]; oral Fu Zi extracts 2.0 g/kg) of 11.9 ± 4.59 h.

For `CCN1CC2(COC)C(O)CC(OC)C34C5CC6(O)C(OC)C(O)C(O)(C5C6OC(=O)c5ccccc5)C(C(OC)C23)C14` (stereo not shown) [BAC, benzoylaconine], the Cmax ([2]; oral Fu Zi extracts 0.5 g/kg) was 1.52 ± 0.71 ng/mL, the Tmax ([2]; oral Fu Zi extracts 0.5 g/kg) was 3.72 ± 3.6 h and the AUC(0-t) ([2]; oral Fu Zi extracts 0.5 g/kg) was 16.2 ± 5.43 ng·h/mL. It also gave a CL/F ([2]; oral Fu Zi extracts 0.5 g/kg) of 460 mL/min/kg, a Vd/F ([2]; oral Fu Zi extracts 0.5 g/kg) of 194 ± 117 L/kg and a half-life ([2]; oral Fu Zi extracts 0.5 g/kg) of 4.48 ± 0.64 h. For the same molecule, the Cmax ([2]; oral Fu Zi extracts 1.0 g/kg) was 3.24 ± 2.01 ng/mL, the Tmax ([2]; oral Fu Zi extracts 1.0 g/kg) was 5.71 ± 5.07 h and the AUC(0-t) ([2]; oral Fu Zi extracts 1.0 g/kg) was 38.5 ± 15.4 ng·h/mL. For the same molecule, the CL/F ([2]; oral Fu Zi extracts 1.0 g/kg) was 271 mL/min/kg, the Vd/F ([2]; oral Fu Zi extracts 1.0 g/kg) was 152 ± 97.1 L/kg and the half-life ([2]; oral Fu Zi extracts 1.0 g/kg) was 5.91 ± 3.79 h. The Cmax ([2]; oral Fu Zi extracts 2.0 g/kg) was 5.91 ± 2.25 ng/mL, the Tmax ([2]; oral Fu Zi extracts 2.0 g/kg) was 0.34 ± 0.2 h and the AUC(0-t) ([2]; oral Fu Zi extracts 2.0 g/kg) was 50.5 ± 19.4 ng·h/mL. For the same molecule, the CL/F ([2]; oral Fu Zi extracts 2.0 g/kg) was 583 mL/min/kg, the Vd/F ([2]; oral Fu Zi extracts 2.0 g/kg) was 801 ± 396 L/kg and the half-life ([2]; oral Fu Zi extracts 2.0 g/kg) was 13.7 ± 4.26 h.
